# Source: patent US10730826B2, “Ketone inhibitors of lysine gingipain” (CORTEXYME, INC., priority 2016, dated 2020)
# Experiments:
# Kgp [1] = target: T1, Kgp (Porphyromonas gingivalis (Bacteroides gingivalis), UniProt Q51817); assay: Biotin activity probe pull-down of Kgp from P. gingivalis lysate; type: binding; conditions: streptavidin beads, Western blot with CAB102, FIG. 8
# Description: P. gingivalis W83 was lysed with B-Per buffer for 15 min at 4° C. […] 5 mg of streptavidin-beads were incubated with all samples for 1 hr at room temperature on an inverting platform. The beads were collected after 1 hr and heated at 100° C. for 5 min with 0.1% SDS to disrupt biotin-streptavidin binding. The resulting supernatants were analyzed by SDS-PAGE and Western blotting for specific detection of Kgp with CAB102 (FIG. 8).
# [2] = target: Kgp in P. gingivalis W83 bacteria (Porphyromonas gingivalis (Bacteroides gingivalis), UniProt Q51817); assay: Bacterial smear staining with gingipain activity probes; type: cell-based; conditions: 1 μM probe, 1 hr, 37° C.; no signal in Kgp knockout
# Description: Bacteria were then pelleted and resuspended in 20 μl of PBS, which was dropped onto a poly-L-lysine coated slide and kept in a dark box at room temperature for about 2 hrs in order for the droplet to dry. The slide was then washed 3 times in PBS. Slides were mounted with a mounting media containing DAPI stain for bacterial DNA and visualized under fluorescence microscopy.
# Kgp [3] = target: T1, Kgp; assay: Activity probe labelling of Kgp in P. gingivalis-infected Jurkat cells (SDS-PAGE); type: cell-based; conditions: purified Kgp and infected Jurkat cells, FIG. 6A
# Excerpt: The identity of this labeled protein in P. gingivalis-infected cells was confirmed to be Kgp by Western blot.
# Kgp [4] = target: T2, Kgp (Porphyromonas gingivalis (strain ATCC 33277 / DSM 20709 / CIP 103683 / JCM 12257 / NCTC 11834 / 2561), UniProt B2RLK2); assay: Gingival tissue staining with activity probe; parameters: species or system human; conditions: patient with periodontal disease, FIG. 5B
# Description: Slides of fresh frozen gingival tissue (5 micron thickness) were removed from a −80° C. freezer and thawed at RT for 10 min. […] Slides were then washed three times in PBS, 5 min each, then fixed in fresh 4% PFA for 15 min at RT, then washed again three times in PBS. Then slides were incubated with a 1× working Trueblack solution (Biotium) for 30 min at RT. Slides were then washed three times in PBS and mounted with anti-fade mounting media containing DAPI (FIG. 5B).
# Kgp [5] = target: T2, Kgp; assay: Buccal cell staining with activity probe; type: cell-based, human; conditions: 1 μM probe, 1 hr, 37° C., FIG. 7
# Description: Cells were incubated for 1 hr at 37° C. and pelleted. Cells were resuspended in 20 μL of PBS and placed on poly-L-lysine coated slides, washed, and dried. Slides were mounted with antifade mounting media containing DAPI and visualized under a fluorescence microscope.
# [6] = in vivo, po; cited from earlier work
smiles,measurement,setting,value
NCCCCC(NC(=O)c1cccc(-n2cc(CNC(=O)CCCC[C@@H]3SC[C@@H]4NC(=O)N[C@@H]43)nn2)c1)C(=O)COc1c(F)cccc1F (stereo partly drawn) [Compound 51a],amount of P. gingivalis from which Kgp was pulled down and detected,Kgp [1],at least 10^6 CFU
CC1=CC(C)=[N+]2C1=Cc1ccc(CCC(=O)NCc3cn(-c4cccc(C(=O)NC(CCCCN)C(=O)COc5c(F)cccc5F)c4)nn3)n1[B-]2(F)F (stereo not drawn) [Compound 15a],fluorescence of W83 bacteria after exposure to probe,[2],fluorescent
same,binding of probe to Kgp,Kgp [3],irreversibly binds to purified Kgp
same,fluorescence signal in gingival tissue section,Kgp [4],yields a fluorescence signal
same,staining of buccal cells,Kgp [5],"pronounced, punctate staining"
CN(NC(=O)CC[C@H](NC(=O)OCc1ccccc1)C(=O)N[C@@H](CCCCN)C(=O)C(=O)NCc1ccccc1)c1ccccc1 [Kyt-36],half-life,[6],increases the half-life
